From ChEMBL document CHEMBL1201862, “PubChem BioAssay data set” (2004)
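Interpolation was linear, between the two tested concentrations surrounding the appropriate level; five concentrations were tested over 48 hours in 96-well plates. GI50 is the concentration that inhibits growth by half.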 Activity calls are given as the source filed them. Rule as the data show it: active = GI50 up to about 1.1 µM and inactive = higher.

Key:
Assay in all cases: DTP human tumour cell line panel, 48 h
SNB-19 = tested on: SNB-19
UO-31 = tested on: UO-31
PC-3 = tested on: PC-3
NCI-H226 = tested on: NCI-H226
HOP-92 = tested on: HOP-92
NCI/ADR-RES = tested on: NCI/ADR-RES
MOLT-4 = tested on: MOLT-4
OVCAR-3 = tested on: OVCAR-3
SR = tested on: SR
A498 = tested on: A498
Hs-578T = tested on: Hs-578T
OVCAR-4 = tested on: OVCAR-4
NCI-H522 = tested on: NCI-H522
OVCAR-8 = tested on: OVCAR-8
EKVX = tested on: EKVX
SNB-75 = tested on: SNB-75
HOP-62 = tested on: HOP-62
TK-10 = tested on: TK-10
SF-295 = tested on: SF-295

Compound	GI50 (SNB-19)	GI50 (UO-31)	GI50 (PC-3)	GI50 (NCI-H226)	GI50 (HOP-92)	GI50 (NCI/ADR-RES)	GI50 (MOLT-4)	GI50 (OVCAR-3)	GI50 (SR)	GI50 (A498)	GI50 (Hs-578T)	GI50 (OVCAR-4)	GI50 (NCI-H522)	GI50 (OVCAR-8)	GI50 (EKVX)	GI50 (SNB-75)	GI50 (HOP-62)	GI50 (TK-10)	GI50 (SF-295)
COc1cc(C2c3cc4c(cc3OC(NNC(N)=O)C2C)OCO4)cc(OC)c1OC (stereo not drawn)	0.452 µM (active)	1.07 µM (active)	0.183 µM (active)	0.205 µM (active)	0.0675 µM (active)	4.72 µM (inactive)	0.235 µM (active)	0.0902 µM (active)	0.0826 µM (active)	0.0233 µM (active)	0.125 µM (active)	11.8 µM (inactive)	0.104 µM (active)	0.356 µM (active)	2.35 µM (inactive)	0.18 µM (active)	0.118 µM (active)	34.7 µM (inactive)	0.114 µM (active)
CC1=NN(c2cccc(Cl)c2)C2(C1)C(Cl)C(=O)N2c1nc2ccccc2s1 (stereo not drawn)	28.6 µM (inactive)	19.3 µM (inactive)	22.6 µM (inactive)	14.2 µM (inactive)	25.3 µM (inactive)	25.4 µM (inactive)	14.5 µM (inactive)	20.5 µM (inactive)	15.2 µM (inactive)	35.9 µM (inactive)	45.2 µM (inactive)	34.7 µM (inactive)	21.8 µM (inactive)	32.5 µM (inactive)	45.5 µM (inactive)	21.6 µM (inactive)	25.5 µM (inactive)	90.2 µM (inactive)	31.2 µM (inactive)
COC(=O)C1(Cc2ccc3c(c2)CCC3)Cc2cc3c(cc2C1=O)CCC3 (stereo not drawn)	31.2 µM (inactive)	16 µM (inactive)	17.9 µM (inactive)	39.2 µM (inactive)	7.74 µM (inactive)	13.4 µM (inactive)	16.5 µM (inactive)	44.6 µM (inactive)	11.4 µM (inactive)	10.7 µM (inactive)	33 µM (inactive)	18.7 µM (inactive)	8.85 µM (inactive)	27.2 µM (inactive)	21.3 µM (inactive)	42.2 µM (inactive)	> 46.5 µM (inactive)	> 46.5 µM (inactive)	35.6 µM (inactive)
CC1=NN2C(=N)/C(=C/c3ccc(F)cc3)C(=O)N=C2S1	> 100 µM (inactive)	> 100 µM (inactive)	> 100 µM (inactive)	> 100 µM (inactive)	47.9 µM (inactive)	13 µM (inactive)	> 100 µM (inactive)	> 100 µM (inactive)	69.8 µM (inactive)	> 100 µM (inactive)	> 100 µM (inactive)	> 100 µM (inactive)	> 100 µM (inactive)	> 100 µM (inactive)	> 100 µM (inactive)	> 100 µM (inactive)	> 100 µM (inactive)	> 100 µM (inactive)	> 100 µM (inactive)
COc1ccc(C(=O)/C=C/c2cccnc2)cc1OC	14.5 µM (inactive)	13.5 µM (inactive)	14.7 µM (inactive)	12.1 µM (inactive)	13 µM (inactive)	14.5 µM (inactive)	3.33 µM (inactive)	3.4 µM (inactive)	1.54 µM (inactive)	14.6 µM (inactive)	14.6 µM (inactive)	12 µM (inactive)	1.83 µM (inactive)	5.81 µM (inactive)	15.1 µM (inactive)	11.8 µM (inactive)	14.9 µM (inactive)	15.7 µM (inactive)	13.4 µM (inactive)
COC(=O)[C@]12CC[C@H]3CC[C@H]([C@H]31)[C@H](c1ccccc1)N2	23 µM (inactive)	17.4 µM (inactive)	16.3 µM (inactive)	15.4 µM (inactive)	15.8 µM (inactive)	13.9 µM (inactive)	12.9 µM (inactive)	15.2 µM (inactive)	12.1 µM (inactive)	17.6 µM (inactive)	23 µM (inactive)	15.2 µM (inactive)	20.5 µM (inactive)	17.4 µM (inactive)	16.8 µM (inactive)	26.9 µM (inactive)	17.4 µM (inactive)	17.2 µM (inactive)	16.3 µM (inactive)
Cc1cc(-c2nc3ccccc3s2)ccc1NC(=O)[C@@H](N)CCCCN	12 µM (inactive)	6.71 µM (inactive)	14.3 µM (inactive)	2.24 µM (inactive)	16.1 µM (inactive)	15.8 µM (inactive)	6.58 µM (inactive)	12.9 µM (inactive)	3.24 µM (inactive)	3.83 µM (inactive)	18.5 µM (inactive)	5.87 µM (inactive)	6.75 µM (inactive)	6.78 µM (inactive)	12.2 µM (inactive)	3.68 µM (inactive)	11.8 µM (inactive)	0.993 µM (active)	5.07 µM (inactive)
